These results are taken from patent publication US20210386721A1, “SUBSTITUTED PHENYLPROPENYL PYRIDINE DERIVATIVES, THEIR PREPARATION AND PHARMACEUTICAL APPLICATIONS” (SHANGHAI HAIYAN PHARMACEUTICAL TECHNOLOGY CO., LTD., priority 2019, published 2021).

The target of the assay is T1, PD-1/PD-L1 (Homo sapiens, UniProt Q9NZQ7).
T1 construct: purchased Cisbio 63ADK000CPDPEB
The experiment in a line: PD-1/PD-L1 binding assay (HTRF, PPI-HTRF). Particulars: HTRF PD1/PD-L1 binding assay kit; 10 nM Tag1-PD-L1; 25° C. How it is done:
Assay 1 PD-1/PD-L1 Binding Assay
DMSO is from Sigma, Cat No: D5879; 384-well small volume plate (white) is from Greiner, Cat No: 784075; Anti-PD1 blocking antibody (IC50: 10 nM) is from Cisbio, Cat No: 64CUS000C-1a; Anti-PDL1 blocking antibody (IC50: 0.3 nM) is from Cisbio, Cat No: 64CUS000C-1b; HTRF PD1/PD-L1 binding assay kit is from Cisbio, Cat No: 63ADK000CPDPEB.
1. Prepare the compound to be tested at 2x concentration into 1× reaction buffer containing 4% DMSO;
2. Tag1-PD-L1 protein and Tag2-PD1 protein were prepared in 1× reaction buffer at concentrations of […] and 10 nM, respectively. The final reaction concentration of the experiment was 10 nM Tag1-PD-L1 and 2 nM […];
3. anti-Tag1-Eu3+ antibody is prepared in 1x concentration detection buffer at a ratio of 1:100;
4. anti-Tag2-XL665 antibody is prepared in 1x concentration detection buffer at a ratio of 1:25; Experimental steps
1. 5 μL of compounds to be tested (2×) was added;
2. 2.5 ul Tag1-PD-L1 protein and 2.5 ul Tag2-PD1 protein were added respectively, and the total reaction system is 10 ul, and reacted at 25° C. for 15 minutes;
3. 5 ul anti-Tag1-Eu3+ antibody and 5 ul anti-Tag2-XL665 antibody were added respectively, and reacted at 25° C. for 16 hours;
4. The fluorescence microplate reader HTRF reading program was used to read two readings at 665 nm and 620 nm, the ratio of the two wavelengths was used to judge the activity of the compound, and the IC50 of the compound to be tested is calculated by XLFIT5.0 (IDBS).
(In general: TR-FRET usually uses a lanthanide donor and a delayed reading to cut background.)

T1 sequence (Q9NZQ7 19-238 limits assumed): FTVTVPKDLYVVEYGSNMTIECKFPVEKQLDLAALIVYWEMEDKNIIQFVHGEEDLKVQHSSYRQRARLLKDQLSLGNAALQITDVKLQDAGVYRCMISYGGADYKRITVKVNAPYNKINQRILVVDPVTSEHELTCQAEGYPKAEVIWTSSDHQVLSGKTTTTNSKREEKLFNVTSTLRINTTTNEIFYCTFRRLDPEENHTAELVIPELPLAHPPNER

In the case of `Cc1c(NC(=O)c2ccc(CNCCO)cn2)cccc1-c1ccnc(/C=C/c2ccc3c(c2)CCN(CC(=O)O)C3)c1C#N` [Z-3, (E)-2-(6-(2-(3-cyano-4-(3-(5-(((2-hydroxyethyl)amino)methyl)picolinamido)-2-methylphenyl)pyridin-2-yl)vinyl)-3,4-dihydroisoquinolin-2(1H)-yl)acetic Acid], the IC50 (in general, the concentration needed to halve the response being measured) was determined as 9 nM.
For `Cc1cc(/C=C/c2nccc(-c3cccc(NC(=O)c4ccc(CNCCO)cn4)c3C)c2C#N)c(F)cc1CNCCO` [Z-4, (E)-N-(3-(3-cyano-2-(2-fluoro-4-(((2-hydroxyethyl)amino)methyl)-5-methylstyryl)pyridin-4-yl)-2-methylphenyl)-5-(((2-hydroxyethyl)amino)methyl)picolinamide] the value was less than 1 nM; for `Cc1cc(/C=C/c2nccc(-c3cccc(NC(=O)c4ccc(CN5CCCC[C@@H]5C(=O)O)cn4)c3C)c2C#N)c(Cl)cc1CN1CC[C@@H](O)C1` [Z-6, (R)-1-((6-((3-(2-((E)-2-chloro-4-(((R)-3-hydroxypyrrolidin-1-yl)methyl)-5-methylstyryl)-3-cyanopyridin-4-yl)-2-methylphenyl)carbamoyl)pyridin-3-yl)methyl)piperidine-2-carboxylic Acid], 2 nM; for `Cc1cc(/C=C/c2nccc(-c3cccc(Nc4nccc5cc(CN6CC[C@@H](O)C6)cnc45)c3C)c2C#N)c(Cl)cc1CN1CCCC[C@H]1C(=O)O` [Z-7, (S)-1-(5-chloro-4-((E)-2-(3-cyano-4-(3-((3-(((R)-3-hydroxypyrrolidin-1-yl)methyl)-1,7-naphthyridin-8-yl)amino)-2-methylphenyl)pyridin-2-yl)vinyl)-2-methylbenzyl)piperidine-2-carboxylic Acid], 1 nM.
The figure for `COc1cc(/C=C/c2cccc(-c3cccc(Nc4nccc5cc(CN6CC[C@@H](O)C6)c(C(F)(F)F)nc45)c3C)c2C)c(C(F)(F)F)cc1CN1CC[C@@H](C(=O)O)C1` [Z-10, (R)-1-(4-((E)-2-(3′-((3-(((R)-3-hydroxypyrrolidin-1-yl)methyl)-2-(trifluoromethyl)-1,7-naphthyridin-8-yl)amino)-2,2′-dimethyl-[1,1′-biphenyl]-3-yl)vinyl)-2-methoxy-5-(trifluoromethyl)benzyl)pyrrolidine-3-carboxylic Acid] is 3 nM.
The figure for `COc1cc(/C=C/c2nccc(-c3cccc(Nc4nccc5cc(CN6CC[C@@H](O)C6)cnc45)c3C)c2C#N)c(C(F)(F)F)cc1CN1CC[C@@H](C(=O)O)C1` [Z-13] is 2 nM; for `COc1cc(/C=C/c2cccc(-c3cccc(Nc4n[nH]c5ccc(CN6CC[C@@H](O)C6)cc45)c3C)c2C)c(C(F)(F)F)cc1CN1CC[C@@H](C(=O)O)C1` [Z-15, (R)-1-(4-((E)-2-(3′-((5-(((R)-3-hydroxypyrrolidin-1-yl)methyl)-1H-indazole-3-yl)amino)-2,2′-dimethyl-[1,1′-biphenyl]-3-yl)vinyl)-2-methoxy-5-(trifluoromethyl)benzyl)pyrrolidine-3-carboxylic Acid] it is 3 nM; for `COc1cc(/C=C/c2cccc(-c3cccc(-c4nc5cc(CN6CC[C@@H](O)C6)ccc5o4)c3C)c2C)c(C(F)(F)F)cc1CN1CC[C@@H](C(=O)O)C1` [Z-16] it is 1 nM.
`Cc1cc(/C=C/c2cccc(-c3cccc(-c4nc5cc(CN6CC[C@@H](O)C6)ccc5o4)c3C)c2C)c(C(F)(F)F)cc1CN1CC[C@@H](C(=O)O)C1` [Z-17] showed an IC50 of 1 nM.
The figure for `COc1cc(/C=C/c2cccc(-c3cccc(-c4nc5cc(CN6CC[C@@H](O)C6)ccc5o4)c3C)c2C#N)c(C(F)(F)F)cc1CN1CC[C@@H](C(=O)O)C1` [Z-19] is 2 nM; for `COc1cc(/C=C/c2cccc(-c3cccc(-c4nc5cc(CN6CC[C@@H](O)C6)ccc5o4)c3C)c2F)c(C(F)(F)F)cc1CN1CC[C@@H](C(=O)O)C1` [Z-20] it is 2 nM; for `COc1cc(/C=C/c2cccc(-c3cccc(-c4nc5cc(CN6CC[C@@H](O)C6)cc(Cl)c5o4)c3C)c2C)c(C(F)(F)F)cc1CN1CC[C@@H](C(=O)O)C1` [Z-22] it is 2 nM.
For `COc1cc(/C=C/c2cccc(-c3cccc(-c4nc5cc(CN6CC[C@@H](C(=O)O)C6)cc(C#N)c5o4)c3C)c2F)c(C(F)(F)F)cc1CN1CC[C@@H](O)C1` [Z-25] the value was 1 nM; for `COc1cc(/C=C/c2cccc(-c3cccc(-c4nc5cc(CN6CC[C@@H](C(=O)O)C6)cc(C#N)c5o4)c3F)c2C)c(C(F)(F)F)cc1CN1CC[C@@H](O)C1` [Z-28], 5 nM.
Consider `COc1cc(/C=C/c2cccc(-c3cccc(-c4nc5cc(CN6CC[C@@H](C(=O)O)C6)ccc5o4)c3C)c2C)c(C(F)(F)F)cc1CN1CC[C@H](O)C1` [Z-31], for which the IC50 stood at 2 nM. This IC50 is about 2.5-fold lower than that of the compound before.
The figure for `COc1cc(/C=C/c2cccc(-c3cccc(-c4nc5cc(CN6CC[C@H](C(=O)O)C6)ccc5o4)c3C)c2C)c(C(F)(F)F)cc1CN1CC[C@H](O)C1` [Z-32] is 2 nM; for `COc1cc(/C=C/c2cccc(-c3cccc(-c4nc5cc(CN6CC[C@@H](O)C6)cc(C#N)c5o4)c3C)c2C)c(C(F)(F)F)cc1CN1CC[C@@H](O)C1` [Z-37] it is 1 nM; for `COc1cc(/C=C/c2cccc(-c3cccc(-c4nc5cc(CN6CCC[C@H]6C(=O)O)cc(C#N)c5o4)c3C)c2C)c(C(F)(F)F)cc1CN1CC[C@@H](O)C1` [Z-39] it is 1 nM.
For `Cc1cc(/C=C/c2nccc(-c3cccc(-c4nc5cc(CN6CC[C@@H](O)C6)cc(Cl)c5o4)c3C)c2C#N)c(Cl)cc1CN1CC[C@@H](C(=O)O)C1` [Z-46], the half-inhibitory concentration (IC50) was 1 nM.
The figure for `Cc1cc(/C=C/c2nccc(-c3cccc(-c4nc5cc(CN6CC[C@@H](O)C6)ccc5o4)c3C)c2C#N)c(Cl)cc1CN1CC[C@@H](C(=O)O)C1` [Z-47] is 1 nM; for `Cc1cc(/C=C/c2nccc(-c3cccc(-c4nc5cc(CN6CC[C@@H](C(=O)O)C6)cc(Cl)c5o4)c3C)c2C#N)c(C(F)(F)F)cc1CN1CC[C@@H](O)C1` [Z-48] it is 2 nM.
For `COc1cc(/C=C/c2nccc(-c3cccc(-c4nc5cc(CN6CC[C@@H](C(=O)O)C6)cc(C#N)c5o4)c3C)c2C#N)c(C(F)(F)F)cc1CN1CC[C@@H](O)C1` [Z-50] the value was 1 nM; for `COc1cc(/C=C/c2cccc(-c3cccc(-c4nc(OC)c(CNC[C@@H]5CCC(=O)N5)cc4Cl)c3C)c2C)c(C(F)(F)F)cc1CN1CC[C@@H](C(=O)O)C1` [Z-55], 3 nM.
In turn, `Cc1cc(/C=C/c2nccc(-c3cccc(-c4nc5c(s4)CN(C(=O)CN(C)C)CC5)c3C)c2C#N)c(Cl)cc1CN1CC[C@@H](C(=O)O)C1` [Z-61, (R,E)-1-(5-chloro-4-(2-(3-cyano-4-(3-(5-(dimethylglycyl)-4,5,6,7-tetrahydrothiazolo [5,4-c]pyridin-2-yl)-2-methylphenyl)pyridin-2-yl)vinyl)-2-methylbenzyl)pyrrolidine-3-carboxylic Acid] came in with an IC50 of 2 nM.
The figure for `COc1cc(/C=C/c2cccc(-c3cccc(OC4CCc5cc(CN6CC[C@@H](O)C6)ccc54)c3Cl)c2C)c(C(F)(F)F)cc1CN1CC[C@@H](C(=O)O)C1` (stereo partly drawn) [Z-62, (3R)-1-(4-((E)-2-(2′-chloro-3′-((5-(((R)-3-hydroxypyrrolidin-1-yl)methyl)-2,3-dihydro-1H-inden-1-yl)oxy)-2-methyl-[1,1′-biphenyl]-3-yl)vinyl)-2-methoxy-5-(trifluoromethyl)benzyl)pyrrolidine-3-carboxylic Acid] is 3 nM; for `Cc1c(NC(=O)c2ccc(CNCCO)cn2)cccc1-c1ccnc(/C=C/c2ccc3c(c2)CCN(CCO)C3)c1C#N` [Z-63] it is 32 nM; for `Cc1c(NC(=O)c2ccc(CN3CC[C@@H](O)C3)cn2)cccc1-c1ccnc(/C=C/c2cc3nc(CN4CC[C@H](C(=O)O)C4)oc3cc2Cl)c1C#N` [Z-64] it is 18 nM.
The figure for `Cc1cc(/C=C/c2nccc(-c3cccc(NC(=O)c4ccc(CN5CC[C@@H](O)C5)cn4)c3C)c2C)c(Cl)cc1CN1CC[C@@H](C(=O)O)C1` [Z-65] is less than 1 nM; for `Cc1cc(/C=C/c2nccc(-c3cccc(NC(=O)c4nc5c(n4C)CCN(C)C5)c3C)c2C#N)c(Cl)cc1CN1CCCC[C@H]1C(=O)O` [Z-66, (S,E)-1-(5-chloro-4-(2-(3-cyano-4-(3-(1,5-dimethyl-4,5,6,7-tetrahydro-1H-imidazo[4,5-c]pyridine-2-carboxamido)-2-methylphenyl)pyridin-2-yl)vinyl)-2-methylbenzyl)piperidine-2-carboxylic Acid] it is 2 nM; for `Cc1cc(/C=C/c2nccc(-c3cccc(NC(=O)c4ccc(CN5CC[C@@H](O)C5)cn4)c3C)c2C#N)c(Cl)cc1CN1CCC(C)(C(=O)O)C1` (stereo partly drawn) [Z-67, 1-(5-chloro-4-((E)-2-(3-cyano-4-(3-(5-(((R)-3-hydroxypyrrolidin-1-yl)methyl)picolinamido)-2-methylphenyl)pyridin-2-yl)vinyl)-2-methylbenzyl)-3-methylpyrrolidine-3-carboxylic Acid] it is 1 nM.
The figure for `Cc1cc(/C=C/c2nccc(-c3cccc(NC(=O)c4ccc(CN5CC[C@@H](O)C5)cn4)c3C)c2C#N)c(Cl)cc1CN1CC[C@@H](C(=O)O)C1` [Z-68] is 1 nM.
